Experimental data published in ChEMBL document CHEMBL1136313, “Biological evaluation of sphingomyelin analogues as inhibitors of sphingomyelinase” (Bioorg Med Chem Lett, 2003).
pIC50: −log10 of the molar value.

What follows are molecules tested against T1, Sphingomyelin phosphodiesterase 2 (Rattus norvegicus, UniProt Q9ET64) (assay: Inhibitory activity against N-SMase (neutral magnesium- dependent-sphingomyelinase) using rat brain microsomes).
T1 sequence (Q9ET64 whole entry): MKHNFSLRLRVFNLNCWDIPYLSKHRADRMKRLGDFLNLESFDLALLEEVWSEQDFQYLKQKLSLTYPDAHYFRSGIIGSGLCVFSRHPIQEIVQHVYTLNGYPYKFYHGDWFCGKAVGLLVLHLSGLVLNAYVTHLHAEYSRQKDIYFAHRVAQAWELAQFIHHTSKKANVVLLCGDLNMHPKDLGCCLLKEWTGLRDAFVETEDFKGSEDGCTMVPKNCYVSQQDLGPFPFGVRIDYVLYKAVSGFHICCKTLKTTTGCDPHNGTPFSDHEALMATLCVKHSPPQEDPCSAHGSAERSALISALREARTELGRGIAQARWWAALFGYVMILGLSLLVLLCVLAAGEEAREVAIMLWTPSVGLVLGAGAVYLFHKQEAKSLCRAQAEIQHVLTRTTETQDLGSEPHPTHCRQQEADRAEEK
`CCCCCCCCCCCC[C@@H](O)[C@H](COC(=O)NCc1ccncc1)NC(=O)C(C)(C)C` was tested, and the pIC50 was < 4.00.
A pIC50 of 5.18 was found for `CCCCCCCCCCCCCCC/C=C/[C@@H](O)[C@H](COC(=O)NCc1ccncc1)NC(=O)C(C)(C)C` in this work.
A pIC50 of 5.17 was found for `CCCCCCCCCC/C=C/[C@@H](O)[C@H](COC(=O)NCc1ccncc1)NC(=O)C(C)(C)C` in this work.
A pIC50 of 4.35 was found for `CCCCCCCCCCCCC/C=C/[C@@H](O)[C@H](CNC(=S)NCc1ccncc1)NC(=O)C(C)(C)C` in this work.
A pIC50 of 4.68 was found for `CCCCCCCCCCCCC/C=C/[C@@H](O)[C@H](COC(=O)N(O)Cc1ccncc1)NC(=O)C(C)(C)C` in this work.
`CCCCCCCCCCCCCCC[C@@H](O)[C@H](COC(=O)NCc1ccncc1)NC(=O)C(C)(C)C` was tested, and the pIC50 was < 4.00.
A pIC50 of 5.55 was found for `CCCCCCCCCCCCC/C=C/[C@@H](O)[C@H](COC(=O)NCc1ccncc1)NC(=O)C(C)(C)C` in this work.
A pIC50 of 5.54 was found for `CCCCCCCCCCCCC/C=C/[C@@H](O)[C@H](CNC(=O)NCc1ccncc1)NC(=O)C(C)(C)C` in this work.
A pIC50 of 4.24 was found for `CCCCCCCCCCCCC/C=C/[C@@H](O)[C@H](CNC(=O)OCc1ccncc1)NC(=O)C(C)(C)C` in this work.
